Here are results for 15 molecules from patent US8236808B2, “Pyrazine derivatives as ENAC blockers” (Novartis AG, priority 2008, dated 2012).

Where a name gives a salt, the structure may show the parent alone.

The experiment concerns the target T1, epithelial sodium channel (ENaC) (Homo sapiens, UniProt P37088+P51168+P51170).
T1 construct: host or cells: primary human bronchial epithelial cells (HBECs), differentiated at the air-liquid interface
T1 sequence (P37088 1-669): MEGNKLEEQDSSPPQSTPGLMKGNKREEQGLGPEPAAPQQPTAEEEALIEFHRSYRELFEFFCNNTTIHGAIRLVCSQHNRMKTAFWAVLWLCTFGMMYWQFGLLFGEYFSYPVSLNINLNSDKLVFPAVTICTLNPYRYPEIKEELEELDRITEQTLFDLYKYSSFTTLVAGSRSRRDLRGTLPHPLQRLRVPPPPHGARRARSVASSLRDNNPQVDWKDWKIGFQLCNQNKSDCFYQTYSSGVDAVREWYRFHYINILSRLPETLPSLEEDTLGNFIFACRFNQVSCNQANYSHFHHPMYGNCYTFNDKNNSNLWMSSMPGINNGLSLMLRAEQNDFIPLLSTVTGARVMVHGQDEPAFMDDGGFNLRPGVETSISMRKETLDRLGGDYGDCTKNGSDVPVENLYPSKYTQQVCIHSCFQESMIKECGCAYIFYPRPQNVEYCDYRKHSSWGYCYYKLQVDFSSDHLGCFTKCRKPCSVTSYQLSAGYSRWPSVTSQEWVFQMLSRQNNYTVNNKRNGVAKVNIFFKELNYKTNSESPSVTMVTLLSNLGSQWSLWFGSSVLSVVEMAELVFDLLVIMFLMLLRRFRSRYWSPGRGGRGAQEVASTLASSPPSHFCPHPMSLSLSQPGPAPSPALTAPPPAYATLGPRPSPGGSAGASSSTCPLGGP
T1 sequence (P51168 1-640): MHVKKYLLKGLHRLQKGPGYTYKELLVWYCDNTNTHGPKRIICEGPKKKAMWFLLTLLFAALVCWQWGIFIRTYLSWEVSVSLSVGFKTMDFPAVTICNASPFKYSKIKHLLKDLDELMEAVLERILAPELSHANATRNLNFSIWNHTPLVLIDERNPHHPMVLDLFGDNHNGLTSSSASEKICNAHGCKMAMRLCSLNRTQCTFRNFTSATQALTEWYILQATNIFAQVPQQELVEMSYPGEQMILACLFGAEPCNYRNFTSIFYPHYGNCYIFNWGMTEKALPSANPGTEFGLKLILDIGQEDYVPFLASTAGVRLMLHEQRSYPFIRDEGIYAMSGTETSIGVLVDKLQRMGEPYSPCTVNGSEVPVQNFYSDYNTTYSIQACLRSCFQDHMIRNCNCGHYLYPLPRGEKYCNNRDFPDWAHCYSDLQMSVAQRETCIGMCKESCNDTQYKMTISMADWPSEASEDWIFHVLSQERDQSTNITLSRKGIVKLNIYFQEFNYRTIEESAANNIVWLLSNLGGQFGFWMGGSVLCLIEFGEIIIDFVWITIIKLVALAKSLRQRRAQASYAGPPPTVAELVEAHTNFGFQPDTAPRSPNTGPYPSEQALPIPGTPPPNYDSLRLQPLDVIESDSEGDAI
T1 sequence (P51170 1-649): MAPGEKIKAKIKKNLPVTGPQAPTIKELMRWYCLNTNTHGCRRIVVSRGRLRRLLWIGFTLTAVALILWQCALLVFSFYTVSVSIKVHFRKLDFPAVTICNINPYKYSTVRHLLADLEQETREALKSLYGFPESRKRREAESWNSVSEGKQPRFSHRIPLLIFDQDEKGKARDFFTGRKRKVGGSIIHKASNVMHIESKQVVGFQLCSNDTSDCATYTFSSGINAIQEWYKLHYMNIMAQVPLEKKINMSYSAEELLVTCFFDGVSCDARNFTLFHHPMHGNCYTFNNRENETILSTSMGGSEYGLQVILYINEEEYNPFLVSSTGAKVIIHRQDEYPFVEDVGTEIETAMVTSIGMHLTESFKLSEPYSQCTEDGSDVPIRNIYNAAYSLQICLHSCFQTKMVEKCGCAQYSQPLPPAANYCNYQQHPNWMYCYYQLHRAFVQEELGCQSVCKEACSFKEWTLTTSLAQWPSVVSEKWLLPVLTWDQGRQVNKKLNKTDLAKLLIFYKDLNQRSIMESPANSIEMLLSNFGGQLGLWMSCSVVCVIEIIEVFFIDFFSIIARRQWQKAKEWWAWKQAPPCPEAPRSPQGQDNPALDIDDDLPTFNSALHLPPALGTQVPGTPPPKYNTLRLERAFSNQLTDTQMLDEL
The experiment is described as follows: Short circuit current (ISC) measurements in human bronchial epithelial cells, inhibition of amiloride-sensitive ISC. The settings on record: inhibition of the amiloride-sensitive ISC; HBECs cultured at air-liquid interface, Ussing chamber, compound added to apical chamber. Format: cell-based. As for the experimental part:
Compounds of formula (I), hereinafter referred to alternatively as “agents of the invention”, are useful as pharmaceuticals. In particular, the compounds have good ENaC blocker activity and may be tested in the following assays.
Human Bronchial Epithelial cells (HBECs) (Cambrex) were cultured under air-liquid interface conditions to provide a well differentiated mucociliary phenotype.
HBECs were cultured using a modification of the method described by Gray and colleagues (Gray et al., 1996). Cells were seeded in plastic T-162 flasks and were grown in bronchial epithelial cell growth medium (BEGM; Cambrex) supplemented with bovine pituitary extract (52 μg/mL), hydrocortisone (0.5 μg/mL), human recombinant epidermal growth factor (0.5 ng/mL), epinephrine (0.5 μg/mL), transferrin (10 μg/mL), insulin (5 μg/mL), retinoic acid (0.1 μg/mL), triiodothyronine ([…]), gentamycin (50 μg/mL) and amphotericin B (50 ng/mL). Medium was changed every 48 hours until cells were 90% confluent. Cells were then passaged and seeded (8.25×10^5 cells/insert) on polycarbonate Snapwell inserts (Costar) in differentiation media containing 50% DMEM in BEGM with the same supplements as above but without triiodothyronine and a final retinoic acid concentration of 50 nM (all-trans retinoic acid). Cells were maintained submerged for the first 7 days in culture, after which time they were exposed to an apical air interface for the remainder of the culture period. At this time, media was changed to DMEM:F12 media containing 2% v/v Ultroser G for the remainder of culture. Amphotericin B was removed from all media 3 feeds prior to use in the Ussing Chambers. Cells were used between days 7 and 21 after establishment of the apical-air interface. At all stages of culture, cells were maintained at 37° C. in 5% CO2 in an air incubator.
Snapwell inserts were mounted in Vertical Diffusion Chambers (Costar) and were bathed with continuously gassed Ringer solution (5% CO2 in O2; pH 7.4) maintained at 37° C. containing (in mM): 120 NaCl, 25 NaHCO3, 3.3 KH2PO4, 0.8 K2HPO4, 1.2 CaCl2, 1.2 MgCl2, and 10 glucose. The solution osmolarity was between 280 and 300 mOsmol/kg H2O for all physiological salt solutions used. Cells were voltage clamped to 0 mV (model EVC4000; WPI). RT was measured by applying a 1- or 2-mV pulse at 30-s intervals and calculating RT by Ohm's law. Data were recorded using a PowerLab workstation (ADInstruments).
Test compounds were prepared as a 10 mM stock solution in DMSO (95%). Serial 3-fold dilutions were freshly prepared in an appropriate vehicle (distilled H2O or Ringers solution). The initial concentration was added to the apical chamber as a 1000× concentrate in 5 μL, resulting in a final 1× concentration the 5 mL volume of the Ussing chamber. Subsequent additions of compound were added in a 3.3 μL volume of the 1000× serially diluted stock solution. At the completion of the concentration-response experiment, amiloride (10 μM) was added into the apical chamber to enable the total amiloride-sensitive current to be measured. An amiloride control IC50 was established at the start of each experiment.
Results are expressed as the mean % inhibition of the amiloride-sensitive ISC. Concentration-response curves were plotted and IC50 values generated using GraphPad Prism 3.02. Cell inserts were typically run in duplicate and the IC50 calculated on the mean % inhibition data.
For orientation: IC50 means the point on the concentration scale where inhibition reaches its midpoint. `CCC[C@H](CNC(=O)c1nc(Cl)c(N)nc1N)[N+](C)(C)C` [Example 1, ((R)-1-{[(3,5-Diamino-6-chloro-pyrazine-2-carbonyl)-amino]-methyl}-butyl)-trimethyl-ammonium iodide] came in with an IC50 of 250 nM.
Regarding `CCC[C@@H](CNC(=O)c1nc(Cl)c(N)nc1N)[N+](C)(C)C` [Example 5, ((S)-1-{[(3,5-Diamino-6-chloro-pyrazine-2-carbonyl)-amino]-methyl}-butyl)-trimethyl-ammonium trifluoroacetate], the IC50 came to 20 nM.
The result for `C[N+](C)(C)C1(CNC(=O)c2nc(Cl)c(N)nc2N)CCCC1` [Example 9, (1-{[(3,5-Diamino-6-chloro-pyrazine-2-carbonyl)-amino]-methyl}-cyclopentyl)-trimethyl-ammonium iodide] reads 3460 nM; that for `C[N+]1(C)CCC[C@@H]1CNC(=O)c1nc(Cl)c(N)nc1N` [Example 11, (R)-2-{[(3,5-Diamino-6-chloro-pyrazine-2-carbonyl)-amino]-methyl}-1,1-dimethyl-pyrrolidinium iodide], 5320 nM; that for `C[N+](C)(C)[C@H](CNC(=O)c1nc(Cl)c(N)nc1N)Cc1ccccc1` [Example 13, {(S)-1-Benzyl-2-[(3,5-diamino-6-chloro-pyrazine-2-carbonyl)-amino]-ethyl}-trimethyl-ammonium iodide], 170 nM.
In turn, `C[N+](C)(C)[C@@H](CCCCNC(=O)CCc1ccc(OCc2ccccc2)cc1)CNC(=O)c1nc(Cl)c(N)nc1N` [Example 14, ((S)-5-[3-(4-Benzyloxy-phenyl)-propionylamino]-1-{[(3,5-diamino-6-chloro-pyrazine-2-carbonyl)-amino]-methyl}-pentyl)-trimethyl-ammonium iodide] gave an IC50 of 46 nM.
The result for `C[N+](C)(C)[C@@H](CCCCNC(=O)Cc1ccc(OCc2ccccc2)cc1)CNC(=O)c1nc(Cl)c(N)nc1N` [Example 15, ((S)-5-[2-(4-Benzyloxy-phenyl)-acetylamino]-1-{[(3,5-diamino-6-chloro-pyrazine-2-carbonyl)-amino]-methyl}-pentyl)-trimethyl-ammonium iodide] reads 52 nM; that for `C[N+]1(CCNC(=O)c2nc(Cl)c(N)nc2N)CCC(Cc2ccccc2)CC1` (stereo not drawn) [Example 16, 4-Benzyl-1-{2-[(3,5-diamino-6-chloro-pyrazine-2-carbonyl)-amino]-ethyl}-1-methyl-piperidinium iodide], 640 nM; that for `C=CC[N+](CCCc1ccc(OC)cc1)(CCCc1ccc(OC)cc1)CCNC(=O)c1nc(Cl)c(N)nc1N` [Example 17, Allyl-{2-[(3,5-diamino-6-chloro-pyrazine-2-carbonyl)-amino]-ethyl}-bis-[3-(4-methoxy-phenyl)-propyl]-ammonium trifluoroacetate], 7.5 nM.
Take `COc1ccc(CCC[N+](CCCc2ccc(OC)cc2)(CCCc2ccc(OC)cc2)CCNC(=O)c2nc(Cl)c(N)nc2N)cc1` [Example 18, {2-[(3,5-Diamino-6-chloro-pyrazine-2-carbonyl)-amino]-ethyl}-tris-[3-(4-methoxy-phenyl)-propyl]-ammonium trifluoroacetate]: the concentration for half-maximal inhibition (IC50) stood at 37 nM.
The result for `CCN(CC)CC[N+](CCCc1ccc(OC)cc1)(CCCc1ccc(OC)cc1)CCNC(=O)c1nc(Cl)c(N)nc1N` [Example 19, {2-[(3,5-Diamino-6-chloro-pyrazine-2-carbonyl)-amino]-ethyl}-(2-diethylamino-ethyl)-bis-[3-(4-methoxy-phenyl)-propyl]-ammonium trifluoroacetate] reads 20 nM; that for `COc1ccc(CCC[N+](C)(CCCc2ccc(OC)cc2)CCNC(=O)c2nc(Cl)c(N)nc2N)cc1` [Example 20, {2-[(3,5-diamino-6-chloro-pyrazine-2-carbonyl)-amino]-ethyl}-bis-[3-(4-methoxy-phenyl)-propyl]-methyl-ammonium trifluoroacetate], 2 nM; that for `CCC[N+](CCCc1ccc(OC)cc1)(CCCc1ccc(OC)cc1)CCNC(=O)c1nc(Cl)c(N)nc1N` [Example 21, {2-[(3,5-Diamino-6-chloro-pyrazine-2-carbonyl)-amino]-ethyl}-bis-[3-(4-methoxy-phenyl)-propyl]-propyl-ammonium trifluoroacetate], 5690 nM.
As for `COc1ccc(CCC[N+](CCCc2ccc(OC)cc2)(CCNC(=O)c2nc(Cl)c(N)nc2N)CC(N)=O)cc1` [Example 22, Carbamoylmethyl-{2-[(3,5-diamino-6-chloro-pyrazine-2-carbonyl)-amino]-ethyl}-bis-[3-(4-methoxy-phenyl)-propyl]-ammonium trifluoroacetate], the midpoint of inhibition, the IC50, lay at 51 nM.
The result for `COc1ccc(CCC[N+](CCCc2ccc(OC)cc2)(CCNC(=O)c2nc(Cl)c(N)nc2N)Cc2ccccc2)cc1` [Example 23, Benzyl-{2-[(3,5-diamino-6-chloro-pyrazine-2-carbonyl)-amino]-ethyl}-bis-[3-(4-methoxy-phenyl)-propyl]-ammonium trifluoroacetate] reads 34 nM.
